Paper PMC12384454, “Study of the Lipophilicity of Tetracyclic Anticancer Azaphenothiazines” (Biomolecules, 2025)
“Also recorded” adds a separate entry of the source. Read-outs that look alike come from different tables or passages of the source.

Legend:
[1] = RP-TLC lipophilicity (RM0, log PTLC, C0), silica gel RP-18F254, acetone/TRIS buffer pH 7.4; assay type: physicochemical; conditions: for RM0: RP-TLC, RM extrapolated to 0% acetone, TRIS buffer pH 7.4; for C0: chromatography hydrophobic index, C0 = −RM0/b; for chromatographic logP / log PTLC: from RM0 by calibration curve log PTLC = 1.2862RM0 + 0.2061
Procedure: In connection with this, in the next stage of the study, the parameters of lipophilicity of the tested compounds were determined experimentally. […] This technique was used to determine the retardation coefficient Rf for each compound in eight mobile phases consisting of acetone and Tris buffer in different volume ratios (50–85% acetone). Next, the Rf values were converted to the chromatographic parameter RM, and then the obtained values were extrapolated to 0% acetone content in the mobile phase obtaining the lipophilicity parameter RM0 (Table S2).
The parameter RM0 can be correlated to an experimental log P lipophilicity parameter of chemical molecules (log PTLC) by applying a calibration curve. The calibration curve was obtained by determining the Rf value for standard substances with a known log Plit value using the RP-TLC method under conditions analogous to those of the tested substances. After calculating the RM and RM0 values, the dependence of the log Plit parameter on the experimentally obtained RM0 values for standards was determined (Table 2).
The chromatographic parameter of lipophilicity was determined by means of Soczewiński–Wachtmeister’s method. […] The acetone ratio was 50 to 85% (v/v) in increments of 5%. The tested compounds in the form of an ethanol solution at a concentration of 2.0 mg/mL each were spotted on chromatographic plates at an amount of 2 µL each. Before analysis, the chromatography chamber (Camag, Switzerland) was saturated with the mobile phase (50 mL) for 30 min. After development at 20 ± 2 °C and subsequent drying, the chromatograms were observed under UV light at 254 nm by using a Camag UV lamp (Muttenz, Switzerland). Each analysis was performed in triplicate. The average value of the retardation factor (Rf) was used to calculate RM using Equation (1):(1) RM=log(1−Rf/Rf)
In addition, the chromatographic parameter of lipophilicity RM0 and b value allowed the determination of the chromatography hydrophobic index C0 by using the following formula:(3) C0=− RM0/b

A549 cells = conditions: cited from earlier work; for IC50: MTT assay; for SI A549: selectivity index vs HaCaT
MDA = system: MDA; parameters: method as in earlier work; conditions: cited from earlier work; for IC50: MTT assay; for SI MDA: selectivity index vs HaCaT
HaCaT cells = conditions: cited from earlier work; for IC50: MTT assay, normal cells; for cytotoxic effects on HaCaT cells: in words
MiaPaCa-2 = system: MiaPaCa-2; parameters: method as in earlier work; conditions: cited from earlier work; for SI MiaPaCa-2: selectivity index vs HaCaT; for IC50: MTT assay
PC3 = system: PC3; parameters: method as in earlier work; conditions: cited from earlier work; for IC50: MTT assay; for SI PC3: selectivity index vs HaCaT
HCT-116 cells = conditions: cited from earlier work; for IC50: MTT assay, read-out: IC50 HCT116; for SI HCT116: selectivity index vs HaCaT
[2] = system: standard strains of staphylococci; conditions: cited from earlier work; for antibacterial activity: mainly against standard strains of staphylococci
[3] = standard for calibration curve; cited from earlier work

Cc1ccc(S(=O)(=O)NCCCCN2c3cc(Cl)ccc3Sc3cc4ccccc4nc32)cc1 [compound 17]
RM0 [1]: 4.68 | C0 [1]: 80.41 | chromatographic logP [1]: 6.22 | IC50 (A549 cells): 9.45 µM | SI A549 (A549 cells): 10.5 | IC50 (MDA): < 100 µM | SI MDA (MDA): 1.0 | IC50 (HaCaT cells): < 100 µM | SI MiaPaCa-2 (MiaPaCa-2): 1.0 | IC50 (PC3): 48.6 ± 4.7 µM | SI PC3 (PC3): 2.0

O=C(NCCCl)NCCCCN1c2cc(Cl)ccc2Sc2cc3ccccc3nc21 [compound 15]
RM0 [1]: 3.59 | C0 [1]: 76.22 | chromatographic logP [1]: 4.82 | IC50 (A549 cells): 6.98 µM | IC50 (MDA): 7.4 ± 1.2 µM | SI MDA (MDA): 0.1 | IC50 (HaCaT cells): 1.1 ± 0.3 µM | IC50 (MiaPaCa-2): 6.4 ± 2.4 µM | SI MiaPaCa-2 (MiaPaCa-2): 0.2 | IC50 (PC3): 76.6 ± 9.8 µM | SI PC3 (PC3): 0.1 | IC50 (HCT-116 cells): 11.3 ± 2.2 µM | SI HCT116 (HCT-116 cells): 0.1 | antibacterial activity [2]: moderate antibacterial activity | MIC ([2]; standard strains): 2 to 8 µg/mL

CCOC(=O)NCCCN1c2cc(Cl)ccc2Sc2cc3ccccc3nc21 [compound 8]
RM0 [1]: 3.76 | C0 [1]: 81.74 | log PTLC [1]: 5.04 | IC50 (A549 cells): 86.6 ± 0.8 µM | SI A549 (A549 cells): 1.1 | IC50 (MDA): < 100 µM | SI MDA (MDA): 1.0 | IC50 (HaCaT cells): < 100 µM

O=C(NCCCl)NCCCN1c2cc(Cl)ccc2Sc2cc3ccccc3nc21 [compound 9]
RM0 [1]: 3.47 | C0 [1]: 76.43 | chromatographic logP [1]: 4.66 | IC50 (A549 cells): 9.3 ± 1.2 µM | SI A549 (A549 cells): 10.7 | IC50 (MDA): 48.6 ± 7.3 µM | SI MDA (MDA): 2.0 | IC50 (HaCaT cells): < 100 µM | IC50 (MiaPaCa-2): 23.2 ± 2.7 µM | SI MiaPaCa-2 (MiaPaCa-2): 4.3 | IC50 (PC3): 34.8 ± 9.8 µM | SI PC3 (PC3): 2.8 | IC50 (HCT-116 cells): 10.4 ± 1.6 µM | SI HCT116 (HCT-116 cells): 8.8 | antibacterial activity [2]: moderate antibacterial activity

CN(C)CCCN1c2ccccc2Sc2ccc(Cl)cc21 [compound 18, chlorpromazine, reference compound]
RM0 [1]: 3.41 | C0 [1]: 67.79 | chromatographic logP [1]: 4.59

CS(=O)(=O)NCCCCN1c2cc(Cl)ccc2Sc2cc3ccccc3nc21 [compound 16]
RM0 [1]: 3.65 | C0 [1]: 76.36 | chromatographic logP [1]: 4.9 | IC50 (A549 cells): 30.5 ± 8.3 µM | SI A549 (A549 cells): 3.3 | IC50 (MDA): < 100 µM | SI MDA (MDA): 0.2 | IC50 (HaCaT cells): < 100 µM | cytotoxic effects on HaCaT cells (HaCaT cells): no cytotoxic effects; also recorded: lack of toxicity to non-cancer cells | IC50 (MiaPaCa-2): 98.4 ± 5.6 µM | SI MiaPaCa-2 (MiaPaCa-2): 1.0 | SI PC3 (PC3): 1.0 | IC50 (HCT-116 cells): 0.7 µM | SI HCT116 (HCT-116 cells): 143

CC(=O)NCCCCN1c2cc(Cl)ccc2Sc2cc3ccccc3nc21 [compound 13]
RM0 [1]: 3.11 | C0 [1]: 77.17 | chromatographic logP [1]: 4.21 | IC50 (A549 cells): 82.3 ± 6.2 µM | SI A549 (A549 cells): 1.2 | IC50 (MDA): < 100 µM | SI MDA (MDA): 1.0 | IC50 (HaCaT cells): < 100 µM

CN1CCCCC1CCN1c2cc(Cl)ccc2Sc2cc3ccccc3nc21 (stereo not shown) [compound 5]
RM0 [1]: 4.20 | C0 [1]: 84.51 | log PTLC [1]: 5.61 | IC50 (A549 cells): 16 ± 4.2 µM | SI A549 (A549 cells): 1 | IC50 (MDA): 16.7 ± 1.1 µM | SI MDA (MDA): 0.9 | IC50 (HaCaT cells): 12.7 ± 1.9 µM | IC50 (MiaPaCa-2): 24.3 ± 3.5 µM | SI MiaPaCa-2 (MiaPaCa-2): 0.5 | IC50 (PC3): 16.7 ± 1.8 µM | SI PC3 (PC3): 0.7 | IC50 (HCT-116 cells): 7.7 µM | SI HCT116 (HCT-116 cells): 1.6

CC(=O)NCCCN1c2cc(Cl)ccc2Sc2cc3ccccc3nc21 [compound 7]
RM0 [1]: 2.72 | C0 [1]: 76.19 | chromatographic logP [1]: 3.7 | IC50 (A549 cells): 24.6 ± 6.1 µM | SI A549 (A549 cells): 4.1 | IC50 (MDA): 76.6 ± 8.9 µM | SI MDA (MDA): 1.3 | IC50 (HaCaT cells): < 100 µM

CN(C)CCCN1c2cc(Cl)ccc2Sc2cc3ccccc3nc21 [compound 2]
RM0 [1]: 3.77 | C0 [1]: 70.60 | log PTLC [1]: 5.05 | IC50 (A549 cells): 8.2 µM | SI A549 (A549 cells): 7.6 | IC50 (MDA): 52.1 ± 2.7 µM | SI MDA (MDA): 1.2 | IC50 (HaCaT cells): 62.3 ± 2.5 µM | cytotoxic effects on HaCaT cells (HaCaT cells): no cytotoxic effects | IC50 (MiaPaCa-2): 40.2 ± 0.7 µM | SI MiaPaCa-2 (MiaPaCa-2): 1.6 | IC50 (PC3): 52.1 ± 7.1 µM | SI PC3 (PC3): 1.2 | IC50 (HCT-116 cells): 1.6 µM | antibacterial activity [2]: moderate antibacterial activity

O=C1c2ccccc2C(=O)N1CCCCN1c2cc(Cl)ccc2Sc2cc3ccccc3nc21 [compound 12]
RM0 [1]: 4.41 | C0 [1]: 85.47 | chromatographic logP [1]: 5.88

O=C(O)c1ccccc1 [benzoic acid, reference compound]
RM0 [1]: 1.16

CCOC(=O)NCCCCN1c2cc(Cl)ccc2Sc2cc3ccccc3nc21 [compound 14]
RM0 [1]: 4.06 | C0 [1]: 82.86 | chromatographic logP [1]: 5.43 | SI A549 (A549 cells): 1.0 | IC50 (MDA): < 100 µM | SI MDA (MDA): 1.0 | IC50 (HaCaT cells): < 100 µM

CC(=O)Nc1ccccc1 [acetanilide, reference compound]
RM0 [1]: 0.78 | log PTLC [1]: 1.21 | log Plit [3]: 1.21 [35]

c1ccc2cc3ccccc3cc2c1 [anthracene, reference compound]
log Plit [3]: 4.45 [36]

Clc1ccc(C(c2ccc(Cl)cc2)C(Cl)(Cl)Cl)cc1 [p,p’-DDT, reference compound]
RM0 [1]: 4.69 | log PTLC [1]: 6.24 | log Plit [3]: 6.38 [37]

CCN(CC)CCN1c2cc(Cl)ccc2Sc2cc3ccccc3nc21 [compound 1]
RM0 [1]: 3.98 | C0 [1]: 69.58 | chromatographic logP [1]: 5.33 | IC50 (A549 cells): 27.2 ± 8.4 µM | SI A549 (A549 cells): 3.7 | IC50 (MDA): < 100 µM | SI MDA (MDA): 1.0 | IC50 (HaCaT cells): < 100 µM | antibacterial activity [2]: moderate antibacterial activity

Clc1ccc2c(c1)N(CCN1CCCC1)c1nc3ccccc3cc1S2 [compound 3]
RM0 [1]: 3.96 | C0 [1]: 73.88 | chromatographic logP [1]: 5.29 | IC50 (A549 cells): 17.4 ± 4.1 µM | SI A549 (A549 cells): 5.7 | IC50 (MDA): 77.1 ± 1.6 µM | SI MDA (MDA): 1.3 | IC50 (HaCaT cells): < 100 µM | IC50 (MiaPaCa-2): 57.4 ± 9.6 µM | SI MiaPaCa-2 (MiaPaCa-2): 1.7 | IC50 (PC3): 77.1 ± 9.4 µM | SI PC3 (PC3): 1.3 | IC50 (HCT-116 cells): 17.5 ± 1.4 µM | SI HCT116 (HCT-116 cells): 5.7 | antibacterial activity [2]: moderate antibacterial activity

CS(=O)(=O)NCCCN1c2cc(Cl)ccc2Sc2cc3ccccc3nc21 [compound 10]
RM0 [1]: 3.37 | C0 [1]: 76.24 | chromatographic logP [1]: 4.53 | SI A549 (A549 cells): 1.0 | IC50 (MDA): < 100 µM | SI MDA (MDA): 1.0 | IC50 (HaCaT cells): < 100 µM

Clc1ccc2c(c1)N(CCN1CCCCC1)c1nc3ccccc3cc1S2 [compound 4]
RM0 [1]: 4.01 | C0 [1]: 73.04 | chromatographic logP [1]: 5.36 | IC50 (A549 cells): 63.8 ± 8.5 µM | SI A549 (A549 cells): 1.6 | IC50 (MDA): < 100 µM | SI MDA (MDA): 1.0 | IC50 (HaCaT cells): < 100 µM

O=C1c2ccccc2C(=O)N1CCCN1c2cc(Cl)ccc2Sc2cc3ccccc3nc21 [compound 6]
RM0 [1]: 4.12 | C0 [1]: 82.90 | chromatographic logP [1]: 5.5

COc1cccc2c1C(=O)c1c(O)c3c(c(O)c1C2=O)C[C@@](O)(C(=O)CO)C[C@@H]3O[C@H]1C[C@H](N)[C@H](O)[C@H](C)O1 [DX, doxorubicin, reference compound]
IC50 (A549 cells): 0.6 ± 0.2 µM | SI A549 (A549 cells): 0.14 | SI A549 (A549 cells; listed as doxorubicin): 0.14–0.15 | IC50 (MDA): 0.8 ± 0.1 µM | SI MDA (MDA): 0.15 | IC50 (HaCaT cells): 0.3 ± 0.1 µM | IC50 (MiaPaCa-2): 0.6 ± 0.2 µM | SI MiaPaCa-2 (MiaPaCa-2): 0.14 | IC50 (PC3): 0.8 ± 0.1 µM | SI PC3 (PC3): 0.15 | IC50 (HCT-116 cells): 0.59 ± 0.02 µM | SI HCT116 (HCT-116 cells): 0.5

Cc1ccc(S(=O)(=O)NCCCN2c3cc(Cl)ccc3Sc3cc4ccccc4nc32)cc1 [compound 11]
RM0 [1]: 4.59 | C0 [1]: 79.96 | chromatographic logP [1]: 6.1 | SI A549 (A549 cells): 1.0 | IC50 (MDA): < 100 µM | SI MDA (MDA): 1.0 | IC50 (HaCaT cells): < 100 µM
